Experiment: in vitro
Conditions: human, hela cells, % viability

Structure (SMILES) | viability at 28.5 h, 10 µM [%]
CCOCCCNC(=O)c1cccc(S(=O)(=O)N2CCCC2)c1 [CBK305934] | 104
O=C(CCSc1ccccc1)Nc1ccccc1C(=O)O [CBK264119] | 92.1
CCOC(=O)CNc1ccc(C(F)(F)F)cc1 [CBK057732] | 94.4
COc1cccc2sc(NC(=O)c3c(F)cccc3F)nc12 [CBK149283] | 95.5
Cn1cc(-c2ncc(OCCn3cccc3)nc2N)cn1 [CBK145170] | 107
O=C(O)CN(Cc1ccccc1)Cc1ccccc1 [CBK260903] | 104
Cc1cccnc1Nc1nc(-c2ccccn2)cs1 [CBK267272] | 91.5
N#CCCN(C(=O)NCCCN1CCCC1=O)C1CCCCC1 [CBK156379] | 85.5
CS(=O)(=O)c1ccccc1S(=O)(=O)N1CCN(c2nc3ccccc3s2)CC1 [CBK269468] | 97.7
COCc1cccc(-c2nccnc2OC2CCCCC2)c1 [CBK106959] | 87.5
COc1ccc([C@@]23CC[C@@H](NC(=O)Nc4ccccc4C(F)(F)F)C[C@@H]2N(C)CC3)cc1OC [CBK036466T] | 106
COCC(=O)N1CCN2C(=O)c3ccc(Cl)cc3NC(=O)[C@H]2C1 [CBK289588] | 84.6
Cc1ccc(-c2cc(C(=O)Nc3cccnc3)[nH]n2)c(O)c1C [CBK288158] | 93.3
COc1ccccc1C1CCN(C(=O)c2ccc(C(C)(C)C)cc2)CC1 [CBK086469] | 84.3
COc1ccc(C(=O)N2CCC3(CCCN(CCCn4c(=O)[nH]c5ccccc54)C3)C2)cc1OC (centres unmarked) [CBK132856] | 93.1
CCCOC1CCCN(S(=O)(=O)c2cnc3ccsc3c2)C1 (centres unmarked) [CBK306367] | 75.5
Cc1onc(-c2c(Cl)cccc2Cl)c1C(=O)N(C)C [CBK160437] | 97
O=C(Cn1cccc(C(=O)Nc2ccc(F)cc2)c1=O)Nc1nc2c(s1)CCCCC2 [CBK286055] | 84.7

Structure (SMILES) | viability at 28.5 h, 10 µM [%]
COc1ccccc1CC(=O)NCCC(=O)N1CCN(c2ccc(F)cc2)CC1 [CBK298318] | 87.6
O=C1CC2(CCN(C(=O)C3CCCCC3)CC2)Oc2ccc(F)cc21 [CBK282863] | 74.6
O=S(=O)(Cc1ccccc1)c1cc2c(N3CCNCC3)nccc2s1 [CBK200017C] | 91.9
O=C(Oc1ccc(/C=N/c2ccc(-c3nc4ccccc4s3)c(O)c2)cc1)c1ccc(Cl)cc1 [CBK261234] | 100
CCNC(=O)Nc1cc2ccccc2c(-c2cccnc2)n1 [CBK073787] | 82.3
C/C(=C/C(=O)NCc1ccc(Cl)cc1)C(=O)O [CBK286954] | 105
CCOC(=O)N1CCCN(C(=O)OCC)CC1 [CBK034324] | 101
Cc1cccc(CN2CC[C@@H]3[C@H](C2)[C@@H](c2ccsc2)CN3C(=O)c2ccccc2F)c1 [CBK285659] | 109
CCC1SC2=NC(C)=C(C(=O)OCc3ccccc3)C(c3ccccc3)N2C1=O (centres unmarked) [CBK293960] | 82.7
NCCCNC(=O)c1ccc(-c2cccc(C(F)(F)F)c2)o1 [CBK107454] | 89.4
CCCn1c(C)cc(-c2csc(NC(=O)CCn3c(-c4cccs4)n[nH]c3=S)n2)c1C [CBK295326] | 90.8
O=C1CC(c2ccc(Cl)cc2)CC(=O)C1=CNCCN1CCN(C(=O)Nc2ccccc2)CC1 (centres unmarked) [CBK263671] | 95.3
O=C(NCCN1CCN(C(=O)Nc2ccccc2)CC1)C1CCCC1 [CBK305915] | 95.8
CCCN(C)Cc1ccc(-c2nnn(CC(=O)NCc3ccc(CC)cc3)n2)cc1NC(C)=O [CBK164703] | 105
CC(=O)NC(CC(=O)N1CCc2sccc2C1C)c1ccc(C)cc1 (centres unmarked) [CBK305378] | 89.2
O=C(NCCCn1ccnc1)N1CCN(Cc2ccc(Cl)cc2)CC1 [CBK305894] | 101
O=C(c1ccc2[nH]c(=O)[nH]c2c1)N1CCC2(CCN(C(=O)c3cc(F)c(F)cc3F)C2)C1 (centres unmarked) [CBK131407] | 95.9
